Data taken from ChEMBL document CHEMBL5357036, “Latest developments in coumarin-based anticancer agents: mechanism of action and structure-activity relationship studies” (RSC Med Chem, 2024).
pIC50: −log10 of the molar value. ≈ marks a conversion by molar mass, not a printed value. Blank lines part the entries; values can stand above or below the compound they belong to.

Assays:
SW480 = assay: Cytotoxicity against human SW480 cells assessed as reduction in cell viability incubated for 48 hrs by MTT; assay type: functional, cell-based; conditions: SW480, 48 h
MCF7 [1] = assay: Cytotoxicity against human MCF7 cells assessed as inhibition of cell growth measured after 24 hrs by MTT assay; assay type: functional, cell-based; conditions: MCF7, 24 h
MCF7 [2] = assay: Antiproliferative activity against human MCF7 cells assessed as reduction in cell viability measured after 24 hrs by MTT assay; assay type: functional, cell-based; conditions: MCF7, 24 h
MCF7 [3] = assay: Cytotoxicity against human MCF7 cells assessed as cell growth inhibition incubated for 48 hrs by SRB assay; assay type: functional, cell-based; conditions: MCF7, 48 h
T47D = assay: Anticancer activity against human T47D cells assessed as cell growth inhibition; assay type: functional, cell-based
MCF7 [4] = assay: Growth inhibition of human MCF7 cells incubated for 48 hrs by SRB assay; assay type: functional
MCF7 [5] = assay: Anticancer activity against human MCF7 cells assessed as cell growth inhibition by MTT assay; assay type: functional, cell-based
A549 [6] = assay: Cytotoxicity against human A549 cells assessed as reduction in cell growth incubated for 48 hrs by MTT assay; assay type: functional, cell-based; conditions: A549, 48 h
MCF7 [7] = assay: Cytotoxicity against human MCF7 cells assessed as reduction in cell growth incubated for 48 hrs by MTT assay; assay type: functional, cell-based; conditions: MCF7, 48 h
MCF7 [8] = assay: Cytotoxicity against human MCF7 cells assessed as reduction in cell growth incubated for 5 days by MTT assay; assay type: functional, cell-based; conditions: MCF7, 120 h
HOS = assay: Cytotoxicity against human HOS cells assessed as reduction in cell growth incubated for 5 days by MTT assay; assay type: functional, cell-based; conditions: 120 h
MCF7 [9] = assay: cells; conditions: Homo sapiens, MCF7, 24 h
Description: Cytotoxicity against human MCF7 cells assessed as reduction in cell viability incubated for 24 hrs by MTT assay

MCF7-DOX = assay: Antiproliferative activity against human MCF7-DOX cells assessed as reduction in cell viability by MTT assay; assay type: functional, cell-based
HepG2 [10] = assay: Antiproliferative activity against human HepG2 cells assessed as reduction in cell viability by MTT assay; assay type: functional, cell-based
A549 [11] = assay: Antiproliferative activity against human A549 cells assessed as reduction in cell viability by MTT assay; assay type: functional, cell-based
HeLa = assay: Antiproliferative activity against human HeLa cells assessed as reduction in cell viability by MTT assay; assay type: functional, cell-based
DU-145 = assay: Antiproliferative activity against human DU-145 cells assessed as reduction in cell viability by MTT assay; assay type: functional, cell-based
SK-OV-3 = assay: Antiproliferative activity against human SK-OV-3 cells assessed as reduction in cell viability by MTT assay; assay type: functional, cell-based
[12] = molecular target: ALK tyrosine kinase receptor (Homo sapiens, UniProt Q9UM73, L1196M); assay: Inhibition of ALK L1196M mutant (unknown origin)
HepG2 [13] = assay: Cytotoxicity against human HepG2 cells assessed as reduction in cell viability; assay type: functional, cell-based
MCF7 [14] = assay: Antiproliferative activity against human MCF7 cells assessed as reduction in cell viability by MTT assay; assay type: functional, cell-based
K562 = assay: Cytotoxicity against human K562 cells assessed as reduction in cell growth by MTT assay; assay type: functional, cell-based
MDA-MB-231 [15] = assay: Antiproliferative activity against human MDA-MB-231 cells assessed as reduction in cell viability measured after 72 hrs under hypoxia condition by MTT assay; assay type: functional, cell-based; conditions: MDA-MB-231, 72 h
MDA-MB-231 [16] = assay: Antiproliferative activity against human MDA-MB-231 cells assessed as reduction in cell viability measured after 72 hrs under normoxia condition by MTT assay; conditions: MDA-MB-231, 72 h

ALK tyrosine kinase receptor, sequence (Q9UM73 19-1620 L1196M limits assumed): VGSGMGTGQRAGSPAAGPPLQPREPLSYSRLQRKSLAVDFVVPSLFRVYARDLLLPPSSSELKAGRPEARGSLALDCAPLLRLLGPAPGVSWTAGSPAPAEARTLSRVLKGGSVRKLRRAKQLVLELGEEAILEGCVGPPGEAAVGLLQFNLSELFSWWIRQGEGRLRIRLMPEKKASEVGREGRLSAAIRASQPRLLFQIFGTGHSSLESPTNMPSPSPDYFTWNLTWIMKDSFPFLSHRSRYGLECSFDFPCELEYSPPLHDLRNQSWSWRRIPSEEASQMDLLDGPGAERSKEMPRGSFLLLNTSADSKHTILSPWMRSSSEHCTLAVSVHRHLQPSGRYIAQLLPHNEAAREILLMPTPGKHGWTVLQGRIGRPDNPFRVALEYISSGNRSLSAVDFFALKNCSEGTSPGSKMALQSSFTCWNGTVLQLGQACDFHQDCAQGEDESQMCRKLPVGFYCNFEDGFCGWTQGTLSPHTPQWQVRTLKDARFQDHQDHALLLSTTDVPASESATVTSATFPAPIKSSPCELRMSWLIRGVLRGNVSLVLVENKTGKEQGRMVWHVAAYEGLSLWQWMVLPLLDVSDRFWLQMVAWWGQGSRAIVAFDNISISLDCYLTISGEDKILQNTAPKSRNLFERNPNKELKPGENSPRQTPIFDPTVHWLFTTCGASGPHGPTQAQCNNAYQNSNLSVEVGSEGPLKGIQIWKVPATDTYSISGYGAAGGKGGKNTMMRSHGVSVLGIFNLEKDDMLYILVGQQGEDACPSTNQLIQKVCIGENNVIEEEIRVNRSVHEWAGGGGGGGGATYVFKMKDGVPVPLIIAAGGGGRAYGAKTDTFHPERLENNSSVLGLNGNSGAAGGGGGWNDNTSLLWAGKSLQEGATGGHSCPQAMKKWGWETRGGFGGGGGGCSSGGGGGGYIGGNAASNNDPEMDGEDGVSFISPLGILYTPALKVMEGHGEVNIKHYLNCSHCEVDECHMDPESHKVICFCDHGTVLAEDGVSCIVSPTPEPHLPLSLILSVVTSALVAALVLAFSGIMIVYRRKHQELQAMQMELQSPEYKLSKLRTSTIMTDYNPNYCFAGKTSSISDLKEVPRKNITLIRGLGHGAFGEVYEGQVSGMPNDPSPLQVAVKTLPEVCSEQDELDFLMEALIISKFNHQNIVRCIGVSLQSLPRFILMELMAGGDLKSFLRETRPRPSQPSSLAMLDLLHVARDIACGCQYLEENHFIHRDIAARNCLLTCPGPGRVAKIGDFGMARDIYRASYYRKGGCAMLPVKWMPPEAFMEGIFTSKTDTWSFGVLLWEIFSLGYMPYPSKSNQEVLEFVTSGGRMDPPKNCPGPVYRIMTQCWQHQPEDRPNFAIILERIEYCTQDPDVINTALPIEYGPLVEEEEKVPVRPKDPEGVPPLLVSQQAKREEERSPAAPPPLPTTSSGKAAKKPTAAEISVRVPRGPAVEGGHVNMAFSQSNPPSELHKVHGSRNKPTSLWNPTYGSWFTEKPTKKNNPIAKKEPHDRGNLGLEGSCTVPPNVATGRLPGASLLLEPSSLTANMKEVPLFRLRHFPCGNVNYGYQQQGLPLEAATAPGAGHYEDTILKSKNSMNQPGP

SMILES: CCCCCCCCOc1ccc2c(C)c(/C=C/c3cc(OC)ccc3OC)c(=O)oc2c1
pIC50 (SW480): 5.16

SMILES: COc1ccc(-c2cc(-c3cc4ccccc4oc3=O)nc3nc(C)[nH]c(=O)c23)cc1
pIC50 (MCF7 [1]): 5.96

pIC50 (MCF7 [2]): 4.27
SMILES: Cc1cc(OCc2cn(C3C(=O)N(c4cccc([N+](=O)[O-])c4)C3/C=C\c3ccccc3)nn2)cc2oc(=O)cc(C)c12 (stereo not drawn)

SMILES: COc1cc(/C=C2/SC(=O)N(CCCOc3ccc4c(C)cc(=O)oc4c3)C2=O)cc(OC)c1O
IC50 (MCF7 [3]): 12.1 µg/mL (≈ 24.4 µM)

pIC50 (T47D): 5.63 | GI50 (MCF7 [4]): 32.5 µg/mL (≈ 75 µM)
SMILES: COc1cc(/C=C/C(=O)c2cc3ccccc3oc2=O)ccc1OCCN1CCCCC1

SMILES: COc1ccc(-c2cc(-c3cc4ccccc4oc3=O)nc(N)c2C(N)=O)cc1
pIC50 (MCF7 [1]): 5.96

SMILES: COc1ccc(/C=C2/SC(=O)N(CCCOc3ccc4c(C)cc(=O)oc4c3)C2=O)cc1
IC50 (MCF7 [3]): 15.6 µg/mL (≈ 34.7 µM)

pIC50 (MCF7 [5]): 5.10
SMILES: CCN(CC)c1ccc2oc(=O)c(-c3csc(-n4nc(-c5ccccc5)cc4N)n3)cc2c1

SMILES: Cc1c(NC(=O)CNCc2cccnc2)c(=O)oc2ccccc12
pIC50 (A549 [6]): 4.16 | pIC50 (MCF7 [7]): 4.16

SMILES: COc1ccc(-c2cc(-c3cc4ccccc4oc3=O)nc(NC(C)=O)c2C#N)cc1
pIC50 (MCF7 [1]): 5.96

SMILES: COc1cc(/C=C/c2ccc3ccc(=O)oc3c2)cc(OC)c1O
pIC50 (SW480): 6.00

SMILES: CC(c1cc2ccccc2oc1=O)(c1c[nH]c2ccc(I)cc12)c1c[nH]c2ccc(I)cc12
pIC50 (MCF7 [8]): 4.55 | pIC50 (HOS): 5.06

pIC50 (MCF7 [9]): 4.98
SMILES: C/C(=N\Nc1nc(C)c(/N=N/c2ccc(Cl)cc2)s1)c1cc2cc(/N=N/c3ccccc3)ccc2oc1=O

pIC50 (MCF7-DOX): 4.81 | pIC50 (HepG2 [10]): 4.70 | pIC50 (A549 [11]): 4.73 | pIC50 (HeLa): 4.67 | pIC50 (DU-145): 4.50 | pIC50 (SK-OV-3): 4.75
SMILES: Cc1ccc2c(c1)/C(=N\O)C(=O)N2CCOCCn1cc(COc2ccc3c(C)cc(=O)oc3c2)nn1

pIC50 [12]: 6.35
SMILES: COc1ccc2cc(-c3nc4ccc(OC)cc4s3)c(=O)oc2c1

pIC50 (MCF7 [2]): 4.23
SMILES: Cc1cc(OCc2cn(C3C(=O)N(c4cccc(Cl)c4)C3/C=C\c3ccccc3)nn2)cc2oc(=O)cc(C)c12 (stereo not drawn)

SMILES: CC(c1cc2ccccc2oc1=O)(c1c[nH]c2ccccc12)c1c[nH]c2ccccc12
pIC50 (MCF7 [8]): 4.70 | pIC50 (HOS): 4.68

SMILES: CO[C@@H]1O[C@H](Cn2nncc2COc2cc(=O)oc3ccccc23)[C@@H](O)[C@H](O)[C@H]1O
IC50 (HepG2 [13]): 107 µg/mL (≈ 255 µM)

pIC50 (T47D): 5.63 | GI50 (MCF7 [4]): 18.9 µg/mL (≈ 46.8 µM)
SMILES: O=C(/C=C/c1ccccc1OCCN1CCCCC1)c1cc2ccccc2oc1=O

pIC50 (MCF7-DOX): 4.70 | pIC50 (HepG2 [10]): 4.58 | pIC50 (A549 [11]): 4.54 | pIC50 (HeLa): 4.59 | pIC50 (DU-145): 4.48 | pIC50 (SK-OV-3): 4.45 | pIC50 (MCF7 [14]): 4.53
SMILES: CO/N=C1\C(=O)N(CCOCCOCCOCCn2cc(COc3ccc4c(C)cc(=O)oc4c3)nn2)c2ccc(F)cc21

SMILES: Cc1c(Cc2ccc(NC(=O)Nc3ccc(Cl)c(F)c3)nc2)c(=O)oc2cc(O)c(C(C)(C)C)cc12
pIC50 (K562): 5.78

pIC50 (MCF7 [14]): 4.54
SMILES: Cc1ccc2c(c1)C(=O)C(=O)N2CCOCCn1cc(COc2ccc3c(C)cc(=O)oc3c2)nn1

SMILES: O=c1cc(O)c2ccccc2o1 [4-HYDROXYCOUMARINS]
pIC50 (MDA-MB-231 [15]): ≤ 4.00 | pIC50 (MDA-MB-231 [16]): ≤ 4.00

pIC50 (MDA-MB-231 [15]): 6.22 | pIC50 (MDA-MB-231 [16]): 5.97
SMILES: COc1cccc2c1C(=O)c1c(O)c3c(c(O)c1C2=O)C[C@@](O)(C(=O)CO)C[C@@H]3O[C@H]1C[C@H](N)[C@H](O)[C@H](C)O1 [DOXORUBICIN]

pIC50 (MCF7 [9]): 5.29
SMILES: CNC(=O)c1cc(Oc2ccc(NC(=O)Nc3ccc(Cl)c(C(F)(F)F)c3)cc2)ccn1 [SORAFENIB]
